How the values were obtained:
[1] = test system: Staphylococcus aureus (S. aureus) 11540 strain; assay: Standard microdilution MIC assay, S. aureus; assay type: cell-based
How it was run: (§1)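 Broth microdilution per CLSI M7-A8 guidelines, with reference-strain quality control run in the same design; MIC determined per strain. Activity scored +/− against a 16 micrograms/mL cutoff.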

[2] = test system: Escherichia coli strain ATCC25922; assay: Standard microdilution MIC assay, E. coli; assay type: cell-based
How it was run: as §1

[3] = Rat five day safety study (bodyweight gain, reticulocyte count change); assay type: in vivo; details: male Sprague-Dawley juvenile rats, n=5, once daily slow intravenous infusion for 5 days at or near maximum-tolerated dose; for BW Result: bodyweight gain; for Hematology Result: reticulocyte count change
Description: The compounds of the present disclosure were tested for safety in a multi-day dosing study in rat. Key parameters that were monitored are bodyweight gain and hematological changes, particularly changes in reticulocyte counts. Male Sprague-Dawley (CD) juvenile rats were received from Charles River with double jugular vein catheters. For each compound, n=5. […] Bodyweights were recorded daily for the first 5 days (during the dosing period), then 2 to 3 times per week thereafter. Blood was collected via a jugular vein catheter into EDTA anti-coagulated tubes for complete blood counts (CBC) on Days 0 (baseline), 3 and 7. On Day 22, blood was drawn via a cardiac puncture into EDTA coated tubes for final CBC, and serum separator tubes for the complete clinical chemistry profile. The blood that was collected into serum separator tubes was allowed to clot at room temperature for approximately 30 minutes, spun in a centrifuge at 2000 rpm, and the resulting serum was aliquoted. All samples were sent on wet ice to Charles River Labs for analysis.

Row | SMILES | MIC [1] [µg/mL] | MIC [2] [µg/mL] | BW Result [3] | Hematology Result [3]
1 | C=C[C@@H](CCNC(=N)CF)NCc1ccc(-n2cc3cc(-c4cc(CCC[C@H](C)N)cc(Cl)c4F)[nH]c3nc2=O)cc1 [Compound 23] | ≤ 16 | ≤ 16 | + (a “+” in “BW result” indicates that the rat exhibited a weight gain of 20% or more) | + (a “+” in “Hematology result” indicates indicates that the rat exhibited a reticulocyte count change of 65% or less)
2 | C=C[C@@H](N)CCCc1cc(Cl)c(F)c(-c2cc3cn(-c4ccc([C@@H]5CCC[C@@H](CCNC(C)=N)N5)cc4)c(=O)nc3[nH]2)c1 [Compound 36] | ≤ 16 | ≤ 16 |  | − (a “−” indicates indicates that the rat exhibited a reticulocyte count change of greater than 65%)
3 | CC(=N)NCC[C@@H]1CNC[C@@H](c2ccc(-n3cc4cc(-c5cc(CCC[C@H](C)N)cc(Cl)c5F)[nH]c4nc3=O)cc2)N1 [Compound 50] | ≤ 16 | ≤ 16 | + (a “+” in “BW result” indicates that the rat exhibited a weight gain of 20% or more) | + (a “+” in “Hematology result” indicates indicates that the rat exhibited a reticulocyte count change of 65% or less)
4 | CC(=N)NCCCN[C@@H](C)c1ccc(-n2cc3cc(-c4cc(CCC[C@H](C)N)cc(Cl)c4F)[nH]c3nc2=O)cc1 [Compound 110] | ≤ 16 | ≤ 16 | − (a “−” indicates that the rat exhibited a weight gain of less than 20%) | − (a “−” indicates indicates that the rat exhibited a reticulocyte count change of greater than 65%)
5 | CC(=N)NCC[C@@H]1CCC[C@@H](c2ccc(-n3cc4cc(-c5cc(CCC[C@H](C)N)cc(Cl)c5F)[nH]c4nc3=O)cc2S(C)(=O)=O)N1 [Compound 117] | ≤ 16 | ≤ 16 | − (a “−” indicates that the rat exhibited a weight gain of less than 20%) | + (a “+” in “Hematology result” indicates indicates that the rat exhibited a reticulocyte count change of 65% or less)
6 | CC(=N)NCC[C@@H](NCc1ccc(-n2cc3cc(-c4cc(CCC[C@H](C)N)cc(Cl)c4F)[nH]c3nc2=O)cc1)C1CC1 [Compound 119] | ≤ 16 | ≤ 16 | − (a “−” indicates that the rat exhibited a weight gain of less than 20%) | − (a “−” indicates indicates that the rat exhibited a reticulocyte count change of greater than 65%)
7 | CSc1cc(-n2cc3cc(-c4cc(CCC[C@@H](N)C5CC5)cc(Cl)c4F)[nH]c3nc2=O)ccc1[C@@H]1CCC[C@@H](CCNC(C)=N)N1 [Compound 120] | ≤ 16 | ≤ 16 | + (a “+” in “BW result” indicates that the rat exhibited a weight gain of 20% or more) | + (a “+” in “Hematology result” indicates indicates that the rat exhibited a reticulocyte count change of 65% or less)
8 | CSc1cc(-n2c(C)c3cc(-c4cc(CCC[C@@H](N)C5CC5)cc(Cl)c4F)[nH]c3nc2=O)ccc1[C@@H]1CCC[C@@H](CCNC(C)=N)N1 [Compound 335] | ≤ 16 | ≤ 16 |  | 
9 | C=C[C@@H](N)CCCc1cc(Cl)c(F)c(-c2cc3cn(-c4ccc([C@@H]5CCC[C@@H](C[C@@H](C)NC(C)=N)N5)cc4)c(=O)nc3[nH]2)c1 [Compound 340] | ≤ 16 | ≤ 16 |  | 
10 | C=C[C@H](N)CCCc1cc(-c2cc3cn(-c4ccc([C@@H]5CCC[C@@H](CCNC(C)=N)N5CCCF)c(SC)c4)c(=O)nc3[nH]2)cc(C(F)(F)F)c1 [Compound 342] | ≤ 16 | ≤ 16 |  | 
11 | C=C[C@H](N)CCCc1cc(Cl)c(F)c(-c2cc3cn(-c4ccc([C@@H]5CCC[C@@H](CCNC(C)=N)N5CCCF)cc4)c(=O)nc3[nH]2)c1 [Compound 343] | ≤ 16 | ≤ 16 |  | 
12 | C=C[C@H](N)CCCc1cc(Cl)c(F)c(-c2cc3cn(-c4ccc([C@@H]5CCC[C@@H](CCNC(C)=N)N5CCCF)c(SC)c4)c(=O)nc3[nH]2)c1 [Compound 344] | ≤ 16 | ≤ 16 |  | 
13 | COCCC(=N)NCC[C@@H]1CCC[C@@H](c2ccc(-n3cc4cc(-c5cc(CCC[C@H](C)N)cc(Cl)c5F)[nH]c4nc3=O)cc2)N1 [Compound 348] | ≤ 16 | ≤ 16 |  | 
14 | C=C[C@H](N)CCCc1cc(-c2cc3cn(-c4cc(F)c([C@@H]5CCC[C@@H](CCNC(C)=N)N5CCCF)c(SC)c4)c(=O)nc3[nH]2)cc(C(F)(F)F)c1 [Compound 351] | ≤ 16 | ≤ 16 |  | 
15 | CCCC(=N)NCC[C@@H]1CCC[C@@H](c2ccc(-n3cc4cc(-c5cc(CCC[C@H](C)N)cc(Cl)c5F)[nH]c4nc3=O)cc2SC)N1 [Compound 353] | ≤ 16 | ≤ 16 |  | 
16 | COCC(=N)NCC[C@@H]1CCC[C@@H](c2ccc(-n3cc4cc(-c5cc(CCC[C@H](C)N)cc(Cl)c5F)[nH]c4nc3=O)cc2)N1 [Compound 356] | ≤ 16 | ≤ 16 |  | 
17 | COCCOCC(=N)NCC[C@@H]1CCC[C@@H](c2ccc(-n3cc4cc(-c5cc(CCC[C@H](C)N)cc(Cl)c5F)[nH]c4nc3=O)cc2)N1 [Compound 362] | ≤ 16 | ≤ 16 |  | 
18 | CC(=N)NCC[C@@H]1CCC[C@@H](c2ccc(-n3cc4cc(-c5cc(CCC[C@H](C)N)cc(Cl)c5F)[nH]c4nc3=O)cc2)N1CCF [Compound 364] | ≤ 16 | ≤ 16 |  | 
19 | CC(=N)NCC[C@@H]1CCC[C@@H](c2ccc(-n3cc4cc(-c5cc(CCC[C@H](C)N)cc(Cl)c5F)[nH]c4nc3=O)cc2)N1C[C@H](C)CO [Compound 366] | ≤ 16 | ≤ 16 |  | 
20 | COc1ccc(CCC[C@H](C)N)cc1-c1cc2cn(-c3ccc([C@@H]4CCC[C@@H](CCNC(C)=N)N4)cc3)c(=O)nc2[nH]1 [Compound 377] | ≤ 16 | ≤ 16 |  | 

More lines, main results first:

Row | MIC [1] [µg/mL] | MIC [2] [µg/mL] | SMILES | BW Result [3] | Hematology Result [3]
21 | ≤ 16 | ≤ 16 | CC(=N)NCC[C@@H]1CCC[C@@H](c2ccc(-n3cc4cc(-c5cc(CCC[C@@H](N)C6CC6)cc(Cl)c5F)[nH]c4nc3=O)cc2)N1CCCF [Compound 334] |  | 
22 | ≤ 16 | ≤ 16 | CSc1cc(-n2cc3cc(-c4cc(CCC[C@@H](N)C5CC5)cc(C(F)(F)F)c4)[nH]c3nc2=O)cc(F)c1[C@@H]1CCC[C@@H](CCNC(C)=N)N1CCCF [Compound 337] |  | 
23 | ≤ 16 | ≤ 16 | CSc1cc(-n2cc3cc(-c4cc(CCC[C@@H](N)C5CC5)cc(Cl)c4F)[nH]c3nc2=O)cc(F)c1[C@@H]1CCC[C@@H](CCNC(C)=N)N1CCCF [Compound 338] |  | 
24 | ≤ 16 | ≤ 16 | COC[C@H](N)CCCc1cc(-c2cc3cn(-c4ccc([C@@H]5CCC[C@@H](C[C@@H](C)NC(C)=N)N5)cc4)c(=O)nc3[nH]2)c(F)c(C(F)(F)F)c1 [Compound 339] |  | 
25 | ≤ 16 | ≤ 16 | C=C[C@H](N)CCCc1cc(-c2cc3cn(-c4ccc([C@@H]5CCC[C@@H](CCNC(C)=N)N5CCCF)cc4)c(=O)nc3[nH]2)cc(C(F)(F)F)c1 [Compound 346] |  | 
26 | ≤ 16 | ≤ 16 | COC[C@H](N)CCCc1cc(OC(F)(F)F)c(F)c(-c2cc3cn(-c4ccc([C@@H]5CCC[C@@H](CCNC(C)=N)N5)nc4)c(=O)nc3[nH]2)c1 [Compound 347] |  | 
27 | ≤ 16 | ≤ 16 | C=C[C@H](N)CCCc1cc(-c2cc3cn(-c4ccc([C@@H]5CCC[C@@H](CCNC(C)=N)N5CCCF)c(F)c4)c(=O)nc3[nH]2)cc(C(F)(F)F)c1 [Compound 349] |  | 
28 | ≤ 16 | ≤ 16 | C=C[C@H](N)CCCc1cc(Cl)c(F)c(-c2cc3cn(-c4cc(F)c([C@@H]5CCC[C@@H](CCNC(C)=N)N5CCCF)c(SC)c4)c(=O)nc3[nH]2)c1 [Compound 350] |  | 
29 | ≤ 16 | ≤ 16 | CCCC(=N)NCC[C@@H]1CCC[C@@H](c2ccc(-n3cc4cc(-c5cc(CCC[C@H](C)N)cc(Cl)c5F)[nH]c4nc3=O)cc2)N1 [Compound 352] |  | 
30 | ≤ 16 | ≤ 16 | C=C[C@H](N)CCCc1cc(Cl)c(F)c(-c2cc3cn(-c4ccc([C@@H]5CCC[C@@H](CCNC(C)=N)N5CCCF)c(F)c4)c(=O)nc3[nH]2)c1 [Compound 355] |  | 
31 | ≤ 16 | ≤ 16 | C[C@H](N)CCCc1cc(Cl)c(F)c(-c2cc3cn(-c4ccc([C@@H]5CCC[C@@H](CCNC(=N)CCO)N5)cc4)c(=O)nc3[nH]2)c1 [Compound 357] |  | 
32 | ≤ 16 | ≤ 16 | COC[C@H](N)CCCc1cc(Cl)c(F)c(-c2cc3cn(-c4ccc([C@@H]5CCC[C@@H](CCNC(C)=N)N5)nc4)c(=O)nc3[nH]2)c1 [Compound 358] |  | 
33 | ≤ 16 | ≤ 16 | CC(=N)NC[C@@H]1CCC[C@@H](c2ccc(-n3cc4cc(-c5cc(CCC[C@H](C)N)cc(Cl)c5F)[nH]c4nc3=O)cc2)N1 [Compound 363] |  | 
34 | ≤ 16 | ≤ 16 | CC(=N)NCC[C@@H]1CCC[C@@H](c2ccc(-n3cc4cc(-c5cc(CCC[C@H](C)N)cc(Cl)c5F)[nH]c4nc3=O)cc2)N1C[C@@H](C)CO [Compound 365] |  | 
35 | ≤ 16 | ≤ 16 | CC(=N)NCC[C@@H]1CCC[C@@H](c2ccc(-n3cc4cc(-c5cc(CCC[C@H](C)N)cc(Cl)c5F)[nH]c4nc3=O)cc2)N1CC(C)C [Compound 369] |  | 
36 | ≤ 16 | ≤ 16 | CC(=N)NCC[C@@H]1CCC[C@@H](c2ccc(-n3cc4cc(-c5cc(Cl)cc(CCC[C@H](C)N)c5)[nH]c4nc3=O)cc2)N1 [Compound 370] |  | 

— patent publication US11999739B2, “Antimicrobials methods of making and using the same” (BIOVERSYS AG, priority 2016, dated 2024)
